Among the test systems are Proteus mirabilis GN2425; Escherichia coli NIHJ; Proteus vulgaris HX19.
Holding throughout (assay): Minimal inhibitory concentration by agar dilution method
What all share (assay type): cell-based
(In agar dilution, organisms are placed on agar that contains the substance at set levels.)

The subject of assay [1] is Staphylococcus aureus 209P.
Assay [2] has as its system Pseudomonas aeruginosa 104.
In assay [3] the test system is Klebsiella pneumoniae 602.

Converted amounts (≈) assume the structure as drawn.

The MIC is the lowest concentration that inhibits growth of the organism. A higher MIC goes with a need for much substance. Take `Cc1cc(C(=O)NC(C(=O)N[C@@H]2C(=O)N3[C@@H]2SC(C)(C)[C@@H]3C(=O)O)c2ccccc2)c(O)nn1` (stereo partly shown) [Example 24]: the minimum inhibitory concentration (MIC) in assay [1] was found to be 0.39 µg/mL (≈ 0.803 µM); in assay [2] it was 3.13 µg/mL (≈ 6.45 µM); against Proteus mirabilis GN2425, 50 µg/mL (≈ 103 µM); in assay [3], 25 µg/mL (≈ 51.5 µM); against Escherichia coli NIHJ, 12.5 µg/mL (≈ 25.7 µM); against Proteus vulgaris HX19, 0.39 µg/mL (≈ 0.803 µM).

For `CC1(C)S[C@@H]2[C@H](NC(=O)[C@H](NC(=O)c3cnc4c(c3O)CCC4)c3ccccc3)C(=O)N2[C@H]1C(=O)O` [Example 2, D-α-(4-hydroxy-2,3-cyclopentenopyridine-5-carboxamido)-benzylpenicillin], the minimal inhibitory concentration (MIC) is 0.39 µg/mL (≈ 0.764 µM) in assay [1]; 12.5 µg/mL (≈ 24.5 µM) in assay [2]; 12.5 µg/mL (≈ 24.5 µM) in the assay with Proteus mirabilis GN2425; 12.5 µg/mL (≈ 24.5 µM) in assay [3]; 25 µg/mL (≈ 49 µM) with Escherichia coli NIHJ; 0.39 µg/mL (≈ 0.764 µM) in the assay with Proteus vulgaris HX19.

For the molecule `CC(C)CC(NC(=O)c1ccnnc1O)C(=O)N[C@@H]1C(=O)N2[C@@H]1SC(C)(C)[C@@H]2C(=O)O` (stereo partly shown) [Example 13], the MIC in assay [1] was determined as 0.39 µg/mL (≈ 0.864 µM); in assay [2] it was 12.5 µg/mL (≈ 27.7 µM); against Proteus mirabilis GN2425, 25 µg/mL (≈ 55.4 µM); in assay [3], 25 µg/mL (≈ 55.4 µM); against Escherichia coli NIHJ, 12.5 µg/mL (≈ 27.7 µM); in the assay on Proteus vulgaris HX19, 0.39 µg/mL (≈ 0.864 µM).

With `CC1(C)S[C@@H]2[C@H](NC(=O)C(NC(=O)c3cnccc3O)c3ccccc3)C(=O)N2[C@H]1C(=O)O` (stereo partly shown) [Example 25], the minimum inhibitory concentration (MIC) in assay [1] worked out at 0.78 µg/mL (≈ 1.66 µM); in assay [2] it was 6.23 µg/mL (≈ 13.2 µM); in the assay with Proteus mirabilis GN2425, 12.5 µg/mL (≈ 26.6 µM); in assay [3] it was 25 µg/mL (≈ 53.1 µM); against Proteus vulgaris HX19 it was 0.2 µg/mL (≈ 0.425 µM).

For `CC(C)(C)C(=O)Oc1c(C(=O)N[C@@H](C(=O)N[C@@H]2C(=O)N3[C@@H]2SC(C)(C)[C@@H]3C(=O)O)c2ccccc2)cnc2c1CCCC2` [Example 5, D-α-(2,3-cyclohexeno-4-pivaloyloxypyridine-5-carboxamido)-benzylpenicillin], the MIC in assay [1] worked out at 0.78 µg/mL (≈ 1.28 µM); in assay [2], 12.5 µg/mL (≈ 20.5 µM); in the assay on Proteus mirabilis GN2425 it was 6.25 µg/mL (≈ 10.3 µM); in assay [3], 6.25 µg/mL (≈ 10.3 µM); against Escherichia coli NIHJ, 12.5 µg/mL (≈ 20.5 µM); against Proteus vulgaris HX19 it was 0.39 µg/mL (≈ 0.641 µM).

Consider `CC1(C)S[C@@H]2[C@H](NC(=O)[C@H](NC(=O)c3cccnc3O)c3ccc(O)cc3)C(=O)N2[C@H]1C(=O)O` [Example 10, D-α-(2-hydroxypyridine-3-carboxamido)-p-hydroxybenzylpenicillin], for which the MIC is 1.56 µg/mL (≈ 3.21 µM) in assay [1]; 6.25 µg/mL (≈ 12.8 µM) in assay [2]; 12.5 µg/mL (≈ 25.7 µM) against Proteus mirabilis GN2425; 100 µg/mL (≈ 206 µM) in assay [3]; 12.5 µg/mL (≈ 25.7 µM) with Escherichia coli NIHJ; 0.2 µg/mL (≈ 0.411 µM) against Proteus vulgaris HX19.

With `CC1(C)S[C@@H]2[C@H](NC(=O)[C@H](NC(=O)c3cnccc3O)C3=CCC=CC3)C(=O)N2[C@H]1C(=O)O` [Example 11, D-α-(4-hydroxypyridine-3-carboxamido)-1,4-cyclohexadienylmethylpenicillin], the MIC in assay [1] is 0.39 µg/mL (≈ 0.825 µM); in assay [2] it was 6.25 µg/mL (≈ 13.2 µM); against Proteus mirabilis GN2425, 12.5 µg/mL (≈ 26.5 µM); in assay [3], 12.5 µg/mL (≈ 26.5 µM); in the assay on Escherichia coli NIHJ, 25 µg/mL (≈ 52.9 µM); against Proteus vulgaris HX19, 0.2 µg/mL (≈ 0.423 µM).

Consider `Cc1ncc(C(=O)NC(C(=O)N[C@@H]2C(=O)N3[C@@H]2SC(C)(C)[C@@H]3C(=O)O)c2ccccc2)c(O)c1C(C)O` (stereo partly shown) [Example 22], for which the MIC was 0.78 µg/mL (≈ 1.48 µM) in assay [1]; 6.25 µg/mL (≈ 11.8 µM) in assay [2]; 12.5 µg/mL (≈ 23.6 µM) with Proteus mirabilis GN2425; 12.5 µg/mL (≈ 23.6 µM) in assay [3]; 25 µg/mL (≈ 47.3 µM) in the assay with Escherichia coli NIHJ; 0.39 µg/mL (≈ 0.738 µM) against Proteus vulgaris HX19.

For the molecule `CCOC(=O)Oc1c(C(=O)N[C@@H](C(=O)N[C@@H]2C(=O)N3[C@@H]2SC(C)(C)[C@@H]3C(=O)O)c2ccccc2)cnc2c1CCCC2` [Example 6, D-α -(4-ethoxycarbonyloxy-2,3-cyclohexenopyridine-5-carboxamido)-benzylpenicillin], the MIC in assay [1] was 0.78 µg/mL (≈ 1.31 µM); in assay [2] it was 12.5 µg/mL (≈ 20.9 µM); against Proteus mirabilis GN2425 it was 6.25 µg/mL (≈ 10.5 µM); in assay [3], 6.25 µg/mL (≈ 10.5 µM); in the assay with Escherichia coli NIHJ, 12.5 µg/mL (≈ 20.9 µM); in the assay with Proteus vulgaris HX19, 0.39 µg/mL (≈ 0.654 µM).

On to `CC1(C)S[C@@H]2[C@H](NC(=O)C(NC(=O)c3cnccc3O)c3cnsc3)C(=O)N2[C@H]1C(=O)O` (stereo partly shown) [Example 16], for which the MIC was 0.78 µg/mL (≈ 1.63 µM) in assay [1]; 6.25 µg/mL (≈ 13.1 µM) in assay [2]; 12.5 µg/mL (≈ 26.2 µM) in the assay on Proteus mirabilis GN2425; 25 µg/mL (≈ 52.4 µM) in assay [3]; 25 µg/mL (≈ 52.4 µM) in the assay on Escherichia coli NIHJ; 0.2 µg/mL (≈ 0.419 µM) with Proteus vulgaris HX19.

Molecule `CC1(C)S[C@@H]2[C@H](NC(=O)[C@H](NC(=O)c3ccnnc3O)c3ccccc3)C(=O)N2[C@H]1C(=O)O` [Example 8, D-α-(3-hydroxypyridazine-4-carboxamido)-benzylpenicillin] had an MIC against Proteus mirabilis GN2425 of 6.25 µg/mL (≈ 13.3 µM).

On to `CC1(C)S[C@@H]2[C@H](NC(=O)[C@H](NC(=O)c3cnc4c(c3O)CCCC4)c3ccccc3)C(=O)N2[C@H]1C(=O)O` [Example 3, D-α-(4-hydroxy-2,3-cyclohexenopyridine-5-carboxamido)-benzylpenicillin], for which the minimum inhibitory concentration (MIC) in assay [2] turned out to be 12.5 µg/mL (≈ 23.8 µM); in the assay with Proteus mirabilis GN2425, 6.25 µg/mL (≈ 11.9 µM); in the assay with Proteus vulgaris HX19 it was 0.39 µg/mL (≈ 0.743 µM).

On to `CC1(C)S[C@@H]2[C@H](NC(=O)C(NC(=O)c3ccccn3)c3ccccc3)C(=O)N2[C@H]1C(=O)O` (stereo partly shown) [I, reference compound], for which, in the assay on Proteus mirabilis GN2425, the MIC is 50 µg/mL (≈ 110 µM).

With `CC1(C)S[C@@H]2[C@H](NC(=O)[C@H](NC(=O)c3cnccc3O)c3ccc(O)cc3)C(=O)N2[C@H]1C(=O)O` [Example 9, D-α-(4-hydroxypyridine-3-carboxamido)-p-hydroxybenzylpenicillin], the MIC in assay [1] was determined as 0.78 µg/mL (≈ 1.6 µM); against Proteus mirabilis GN2425, 6.25 µg/mL (≈ 12.8 µM); in assay [3], 100 µg/mL (≈ 206 µM).

For the molecule `CC(=O)c1c(C)ncc(C(=O)N[C@@H](C(=O)N[C@@H]2C(=O)N3[C@@H]2SC(C)(C)[C@@H]3C(=O)O)c2ccccc2)c1O` [Example 4, D-α-(3-acetyl-4-hydroxy-2-methyl-pyridine-5-carboxamido)-benzylpenicillin], the MIC came out at 0.78 µg/mL (≈ 1.48 µM) in assay [1]; 12.5 µg/mL (≈ 23.7 µM) in assay [2]; 6.25 µg/mL (≈ 11.9 µM) against Proteus mirabilis GN2425; 12.5 µg/mL (≈ 23.7 µM) in assay [3]; 12.5 µg/mL (≈ 23.7 µM) in the assay with Escherichia coli NIHJ; 0.39 µg/mL (≈ 0.741 µM) in the assay on Proteus vulgaris HX19.

With `CC1(C)S[C@@H]2[C@H](NC(=O)C(NC(=O)c3cnc4c(c3O)CCCCC4)c3ccccc3)C(=O)N2[C@H]1C(=O)O` (stereo partly shown) [Example 20], the MIC was 0.78 µg/mL (≈ 1.45 µM) in assay [1]; 12.5 µg/mL (≈ 23.2 µM) in assay [2]; 6.25 µg/mL (≈ 11.6 µM) against Proteus mirabilis GN2425; 3.13 µg/mL (≈ 5.81 µM) in assay [3]; 25 µg/mL (≈ 46.4 µM) with Escherichia coli NIHJ; 0.78 µg/mL (≈ 1.45 µM) with Proteus vulgaris HX19.

`CCOC(=O)Oc1c(C(=O)N[C@@H](C(=O)N[C@@H]2C(=O)N3[C@@H]2SC(C)(C)[C@@H]3C(=O)O)c2ccccc2)cnc2c1CCC2` [Example 1, D-α-(4-ethoxycarbonyloxy-2,3-cyclopentenopyridine-5-carboxamido)-benzylpenicillin]: the minimum inhibitory concentration (MIC) in assay [1] was 0.39 µg/mL (≈ 0.669 µM); in assay [2], 6.25 µg/mL (≈ 10.7 µM); in the assay with Proteus mirabilis GN2425 it was 3.13 µg/mL (≈ 5.37 µM); in assay [3], 6.25 µg/mL (≈ 10.7 µM); with Escherichia coli NIHJ, 12.5 µg/mL (≈ 21.5 µM); against Proteus vulgaris HX19, 0.05 µg/mL (≈ 0.0858 µM).

On to `CC1(C)S[C@@H]2[C@H](NC(=O)C(NC(=O)c3cncnc3O)c3ccsc3)C(=O)N2[C@H]1C(=O)O` (stereo partly shown) [Example 17], for which the MIC in assay [1] is 0.39 µg/mL (≈ 0.817 µM); in assay [2], 3.13 µg/mL (≈ 6.55 µM); against Proteus mirabilis GN2425 it was 6.25 µg/mL (≈ 13.1 µM); in assay [3], 50 µg/mL (≈ 105 µM); against Escherichia coli NIHJ, 25 µg/mL (≈ 52.4 µM); against Proteus vulgaris HX19, 0.05 µg/mL (≈ 0.105 µM).

Regarding `CC1(C)S[C@@H]2[C@H](NC(=O)C(NC(=O)c3ccnnc3O)c3ccsc3)C(=O)N2[C@H]1C(=O)O` (stereo partly shown) [Example 15], the minimum inhibitory concentration (MIC) in assay [1] was 0.39 µg/mL (≈ 0.817 µM); in assay [2], 3.13 µg/mL (≈ 6.55 µM); in the assay on Proteus mirabilis GN2425 it was 6.25 µg/mL (≈ 13.1 µM); in assay [3] it was 12.5 µg/mL (≈ 26.2 µM); in the assay with Escherichia coli NIHJ, 12.5 µg/mL (≈ 26.2 µM); with Proteus vulgaris HX19 it was 0.05 µg/mL (≈ 0.105 µM).

Values taken from US4008220A, “Penicillins” (Sumitomo Chemical Company, Limited, priority 1972, dated 1977).
